US12343429B2, “Method of delivery of DNA or RNA cargo unshielded lipid nanoparticles and compositions thereof” (NanoVation Therapeutics Inc., priority 2023, dated 2025)

Key:
[1] = LNP formulability and stability through dialysis, concentration and storage; assay type: physicochemical; conditions: for viability of LNPs, modified method with 25 mM sodium acetate dilution: all ratios of LNP:NaOAc (v:v); for physiochemical properties/stability, modified method with 1× PBS dilution after T-mixing: all ratios of LNP:PBS tested, after dialysis and after concentration to >0.25 mg/mL and overnight storage; for ability to be formulated in PEG-less mRNA-LNPs: unmodified ethanol mixing method, ionizable lipid/DSPC/chol 27.4/50/22.6, N/P 9 (FIG. 6); for behaviour in dialysis: PEG-less mRNA-LNP 1/structural lipid/cholesterol 27.4/50/22.6, unmodified method; for behaviour after dialysis and concentration/storage: PEG-less mRNA-LNP, unmodified method, 27.4/50/22.6; for physiochemical characteristics, modified method with 25 mM sodium acetate dilution: 1:2-1:3 volume ratio
Description: Unless otherwise specified, the LNPs were prepared by dissolving mRNA or plasmid DNA (pDNA) in 25 mM sodium acetate, pH 4.0, while the lipid components at the mole % specified were dissolved in absolute ethanol. The lipids in ethanol and the nucleic acid cargo in buffer were combined in a 1:3 volume by volume ratio using a t-junction with dual-syringe pump. The solutions were pushed through the t-junction at a combined flow rate of 20 mL/min (5 mL/minute for the lipid-containing syringe, 15 mL/minute for the mRNA-containing syringe). The mixture was subsequently dialyzed overnight against at least ˜100 volumes of 1× phosphate buffered saline (PBS), pH 7.4 using Spectro/Por™ dialysis membranes (molecular weight cut-off 12 000-14 000 Da). The LNPs were concentrated as required with an Amicon Ultra™ 100 000 MWCO (molecular weight cut-off), regenerated cellulose concentrator.
After T-mixing, 1× phosphate buffered saline (PBS) or other buffer as indicated, was added to the formulation mixture in increasing ratios of LNP: 1× buffer prior to dialysis and gently mixed, followed by transfer to dialysis in 1×PBS (or other suitable buffer as indicated) followed by processing as usual.
After the T-mixing (see Materials and Methods above), 1× phosphate buffered saline (PBS) was added to the formulation mixture in increasing volume ratios of LNP: 1× PBS (as indicated in FIGS. 7A-F) prior to dialysis followed by gentle mixing and transfer of the mixture to a dialysis bag in 1×PBS overnight followed by processing as usual. […] Physiochemical characteristics (particle size, PDI and encapsulation %) were measured after dialysis and after dialysis and concentration of the LNPs to >0.25 mg/mL and overnight storage.

[2] = Encapsulation efficiency (RiboGreen), particle size and PDI (Zetasizer Nano ZS) of LNPs; assay type: physicochemical; conditions: PEG-less mRNA-LNP, unmodified method, 27.4/50/22.6 (FIG. 6)
Description: Encapsulation efficiency was calculated by determining unencapsulated mRNA content by measuring the fluorescence upon the addition of RiboGreen™ to the mRNA-LNP (Fi) and comparing this value to the total mRNA content that is obtained upon lysis of the LNP by 2% Triton X-100 (Ft): % encapsulation=(Ft−Fi)/Ft×100.
The particle size and polydispersity index (PDI) were characterized using a Zetasizer Nano ZS™.

[3] = buffer-to-LNP ratio as low as 1:1 (v:v)
[4] = dilution ratios below 1:1 (v:v)

| SMILES | ability to be formulated in PEG-less mRNA-LNPs [1] | PDI [2] | encapsulation efficiency [2] | behaviour after dialysis and concentration/storage [1] | also measured |
| --- | --- | --- | --- | --- | --- |
| CCCCCCCCC(=O)OC(CCCCCC(CCCCCC(CSC1CCCCC1)OC(=O)CCCCCCCC)OC(=O)CCCN(C)C)CSC1CCCCC1 (stereo not drawn) [Ionizable lipid 1] | capable of being formulated | – | – | – | viability of LNPs, modified method with 25 mM sodium acetate dilution [1]: viable LNPs; physiochemical properties/stability, modified method with 1× PBS dilution after T-mixing [1]: acceptable physiochemical properties |
| CCCCCCCCCCCCCC(=O)OC[C@H](COP(=O)([O-])OCC[N+](C)(C)C)OC(=O)CCCCCCCCCCCCC [DMPC, dimyristoylphosphatidylcholine] | – | – | – | – | physiochemical characteristics after concentration/storage ([1]; 12/DMPC/cholesterol 27.4/50/22.6, unmodified method (FIG. 13)): deteriorated after concentration/storage; physiochemical characteristics / behaviour upon dialysis ([1]; PEG-less LNP with 12 as ionizable lipid, helper lipid screen, unmodified method (FIG. 13)): less ideal physiochemical characteristics |
| CCCCCCCC/C=C\CCCCCCCC(=O)OC[C@H](COP(=O)(O)OCCN)OC(=O)CCCCCCC/C=C\CCCCCCCC [DOPE, dioleoylphosphatidylethanolamine] | – | – | – | – | behaviour in dialysis [1]: agglomerated in dialysis |
| CCCCCCCCC(CCCCCC)C(=O)OCCCCCC(CCCCCSCC(CCCCCC)OC(=O)CCC1CCCCC1)N(C)CCCCO (stereo not drawn) [Ionizable lipid 17] | undesirable physiochemical characteristics | high | low | agglomerate after dialysis or were not stable after concentration/storage | – |
| CCCCCCCCCC(=O)OC(CCCCC1(CCCCC(CSC2CCCCC2)OC(=O)CCCCCCCCC)OCC(CCN(C)C)O1)CSC1CCCCC1 (stereo not drawn) [Ionizable lipid 12] | undesirable physiochemical characteristics | high | low | agglomerate after dialysis or were not stable after concentration/storage | viability of LNPs, modified method with 25 mM sodium acetate dilution [1]: viable PEG-less LNPs; stability, modified method with 1× PBS dilution ([1]; less than 1× volume of 1×PBS (1:0.25, 1:0.5, undiluted)): agglomerated upon dialysis; stability, modified method with 1× PBS dilution ([1]; ratios of at least 1:1 (v:v) addition of 1×PBS): stable after concentration and overnight storage |
| CCCCCCCC(=O)OC(CCCCCC)CSCCCCCC(CCCCCSCC(CCCCCC)OC(=O)CCCCCCC)N(C)CCCCO (stereo not drawn) [Ionizable lipid 15] | undesirable physiochemical characteristics | high | low | agglomerate after dialysis or were not stable after concentration/storage | physiochemical characteristics, modified method with 25 mM sodium acetate dilution [1]: ideal physiochemical characteristics; physiochemical properties/stability, modified method with 1× PBS dilution after T-mixing [1]: agglomerated in dialysis; stability, modified method with 25 mM sodium acetate dilution [1, 3]: stable PEG-less lcLNP compositions; stability, modified method with 25 mM sodium acetate dilution [1, 4]: agglomerated in dialysis |
| CCCCCCC(CSCCCCCC(CCCCCSCC(CCCCCC)OC(=O)CCC1CCCCC1)N(C)CCCCO)OC(=O)CCC1CCCCC1 (stereo not drawn) [Ionizable lipid 16] | undesirable physiochemical characteristics | high | low | agglomerate after dialysis or were not stable after concentration/storage | stability, modified method with 1× PBS dilution ([1]; 1:2 (v:v) dilution): stable particles which did not agglomerate in dialysis; physiochemical characteristics, modified method with 25 mM sodium acetate dilution [1]: ideal physiochemical characteristics; stability, modified method with 25 mM sodium acetate dilution [1, 3]: stable PEG-less lcLNP compositions; stability, modified method with 25 mM sodium acetate dilution [1, 4]: agglomerated in dialysis |
| CCCCCCCCCCCOC(=O)CCCCCN(CCO)CCCCCCCC(=O)OC(CCCCCCCC)CCCCCCCC [Ionizable lipid 21] | capable of being formulated | – | – | – | – |
| CCCCCCCCCCCCCCCCCC(=O)OC[C@H](COP(=O)([O-])OCC[N+](C)(C)C)OC(=O)CCCCCCCCCCCCCCCCC [DSPC, distearoylphosphatidylcholine] | – | – | – | – | change in physiochemical characteristics after concentration and refrigerated storage ([1]; PEG-less mRNA-LNP 1/structural lipid/cholesterol 27.4/50/22.6, unmodified method (FIGS. 12A, 12B)): no change |
| CCCCCCCC/C=C\CCCCCCCC(=O)OC[C@H](COP(=O)([O-])OCC[N+](C)(C)C)OC(=O)CCCCCCC/C=C\CCCCCCCC [DOPC, dioleoylphosphatidylcholine] | – | – | – | – | behaviour in dialysis [1]: agglomerated in dialysis |
